Numbers after ± are expanded uncertainties.
Key:
[1] = Liquid; for speed of sound: Sing-around technique in a fixed-path interferometer; for mass density: Vibrating tube method
[2] = xn = mol fraction of the nth substance listed; settings: 101 kPa, Liquid, x2 = 0; for mass density: Vibrating tube method; for speed of sound: Sing-around technique in a fixed-path interferometer

CCCCn1cc[n+](C)c1.O=S(=O)([O-])C(F)(F)F [1-butyl-3-methylimidazolium trifluoromethanesulfonate]
[1], 101.33 kPa
Settings | mass density [kg/m3] | speed of sound [m/s]
288.15 K | 1304.56 ± 1.5 | 1416 ± 2.1
298.15 K | 1296.67 ± 1.5 | 1393 ± 2.1
308.15 K | 1288.78 ± 1.5 | 1370.7 ± 2.1
318.15 K | 1280.95 ± 1.5 | 1349 ± 2.1
328.15 K | 1273.16 ± 1.4 | 1327.8 ± 2.1
338.15 K | 1265.44 ± 1.4 | 1307 ± 2.1

O [water] + CCCC[n+]1ccn(CC)c1.O=S(=O)([O-])C(F)(F)F
[2]
Settings | mass density [kg/m3] | speed of sound [m/s]
278.15 K | 999.99 ± 0.03 | –
318.15 K | – | 1536.8 ± 0.76
328.15 K | 985.7 ± 0.04 | 1547.7 ± 0.76
338.15 K | 980.56 ± 0.04 | 1553.6 ± 0.76

O [water]
[1], 101 kPa
Settings | mass density [kg/m3] | speed of sound [m/s]
278.15 K | 999.99 ± 0.03 | –
318.15 K | – | 1536.8 ± 0.76
328.15 K | 985.7 ± 0.04 | 1547.7 ± 0.76
338.15 K | 980.56 ± 0.04 | 1553.6 ± 0.76

CCCC[N+]1(C)CCCC1.O=S(=O)([O-])C(F)(F)F [1-butyl-1-methylpyrrolidinium trifluoromethanesulfonate]
[1], 101.33 kPa
Settings | mass density [kg/m3] | speed of sound [m/s]
278.15 K | 1267.23 ± 0.45 | 1513.5 ± 1.2
288.15 K | 1259.74 ± 0.45 | 1486.1 ± 1.2
298.15 K | 1252.26 ± 0.44 | 1461.4 ± 1.2
308.15 K | 1245.09 ± 0.44 | 1437.8 ± 1.2
318.15 K | 1237.94 ± 0.43 | 1414.9 ± 1.2
328.15 K | 1230.81 ± 0.42 | 1392.7 ± 1.2
338.15 K | 1223.73 ± 0.42 | 1371.1 ± 1.2

O [water] + CCCC[N+]1(C)CCCC1.O=S(=O)([O-])C(F)(F)F
[2]
Settings | mass density [kg/m3] | speed of sound [m/s]
278.15 K | 999.99 ± 0.03 | –
318.15 K | – | 1536.8 ± 0.76
328.15 K | 985.7 ± 0.04 | 1547.7 ± 0.76
338.15 K | 980.56 ± 0.04 | 1553.6 ± 0.76

CCCC[n+]1ccn(CC)c1.O=S(=O)([O-])C(F)(F)F
[1], 101.33 kPa
Settings | mass density [kg/m3] | speed of sound [m/s]
278.15 K | 1278.02 ± 1.5 | 1420.6 ± 2.1
288.15 K | 1269.97 ± 1.4 | 1396.3 ± 2.1
298.15 K | 1262.21 ± 1.4 | 1373.1 ± 2.1
308.15 K | 1254.44 ± 1.4 | 1350.6 ± 2.1
318.15 K | 1246.71 ± 1.4 | 1328.6 ± 2.1
328.15 K | 1239.01 ± 1.4 | 1307.1 ± 2.1
338.15 K | 1231.35 ± 1.4 | 1286.1 ± 2.1

O [water] + CCCCn1cc[n+](C)c1.O=S(=O)([O-])C(F)(F)F
[2]
Settings | mass density [kg/m3] | speed of sound [m/s]
318.15 K | – | 1536.8 ± 0.76
328.15 K | 985.7 ± 0.04 | 1547.7 ± 0.76
338.15 K | 980.56 ± 0.04 | 1553.6 ± 0.76

Reference: the NIST ThermoML archive (doi:10.1021/je300134c)
